Reference: paper PMC7337102 (ACS infectious diseases, 2019)

Molecular target: Eis_wt (Mycobacterium tuberculosis, UniProt P9WFK7)
Type: biochemical
Conditions: KAN as substrate

Chain of Eis_wt (P9WFK7 whole entry): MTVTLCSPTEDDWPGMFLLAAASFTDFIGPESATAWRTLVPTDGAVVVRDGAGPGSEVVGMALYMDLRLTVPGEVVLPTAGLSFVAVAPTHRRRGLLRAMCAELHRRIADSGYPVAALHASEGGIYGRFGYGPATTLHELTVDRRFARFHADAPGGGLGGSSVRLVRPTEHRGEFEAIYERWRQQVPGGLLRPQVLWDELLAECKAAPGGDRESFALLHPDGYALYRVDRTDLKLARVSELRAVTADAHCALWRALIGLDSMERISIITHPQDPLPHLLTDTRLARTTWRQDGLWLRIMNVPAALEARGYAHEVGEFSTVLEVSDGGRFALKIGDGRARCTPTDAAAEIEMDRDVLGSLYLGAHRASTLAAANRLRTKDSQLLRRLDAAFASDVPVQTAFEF

## NC[C@H]1O[C@H](O[C@H]2[C@H](O)[C@@H](O[C@H]3O[C@H](CO)[C@@H](O)[C@H](N)[C@H]3O)[C@H](N)C[C@@H]2N)[C@H](O)[C@@H](O)[C@@H]1O [KAN, kanamycin]
  kcat: 0.238 ± 0.0317 s⁻¹
Average for three sets of assays
  Km: 551 ± 134 µM
